Patent US20240299359A1, “PHARMACEUTICAL COMPOSITION FOR ANIMALS CONTAINING 5-HYDROXY-METHYLIMIDAZOLIDINE-2,4-DIONE COMPOUND AS ACTIVE INGREDIENT” (KYONGBO PHARM. CO., LTD., priority 2021, published 2024)
“And” between values parts separate entries of the source, which are not always exact repeats. Identical values can stand only once.

Test system: beagles
Test: 13-week repeated oral toxicity: hematological test
Format: in vivo, beagle
Description: Fasting was conducted the day before administration (blood test date, pre), the 4th week (day 29) after administration, the 8th week (day 57) after administration, and the 13th week (day 92) after administration, and when the remaining feed was present in the feed container 3 hours after feeding on the day of fasting, it was removed.
All subjects were fasted for 16 hours and measurements were then performed pre (before administration), 4 weeks (day 29) after administration, 8 weeks (day 57) after administration, and 13 weeks (day 92) after administration. Within 3 hours after 2 to 3 ml of blood collected from the jugular vein of each subject was injected into a CBC bottle containing EDTA, RBC, HGB, HCT, RBC indices (MCV, MCH, MCHC), and platelet count and WBC differential count were measured using an automatic hematometer.

[1] = G2 200 mg/kg group, female (F4-F6, Mean), before administration (day 0)
[2] = G2 200 mg/kg group, female (F4-F6, Mean), before administration (day 0), mean
[3] = G2 200 mg/kg group, male (M4-M6, Mean), before administration (day 0)
[4] = G2 200 mg/kg group, male (M4-M6, Mean), before administration (day 0), mean
[5] = G2 200 mg/kg, repeated administration for 13 weeks, female, group mean
[6] = G2 200 mg/kg, repeated administration for 13 weeks, female, individual animals
[7] = G2 200 mg/kg, repeated administration for 13 weeks, male, group mean
[8] = G2 200 mg/kg, repeated administration for 13 weeks, male, individual animals
[9] = G3 500 mg/kg group, female (F7-F9, Mean), before administration (day 0)
[10] = G3 500 mg/kg group, female (F7-F9, Mean), before administration (day 0), mean
[11] = G3 500 mg/kg group, male (M7-M9, Mean), before administration (day 0)
[12] = G3 500 mg/kg group, male (M7-M9, Mean), before administration (day 0), mean
[13] = G3 500 mg/kg, repeated administration for 13 weeks, female, group mean

SMILES: CN1C(=O)NC(=O)C1O (stereo not drawn) [KBP-001, 5-hydroxy-1-methylimidazolidine-2,4-dione]
- HCT [1]: 47.0% and 49.6% and 51.3%
- HGB [1]: 15. g/dl and 16.7 g/dl and 17.5 g/dl
- MCH [1]: 22.5 pg and 22.6 pg and 22.7 pg
- MCHC [1]: 33.8 g/dL and 33.6 g/dL and 34.1 g/dL
- MCV [1]: 66.6 fL and 67.3 fL and 66.7 fL
- Retic [1]: 0.77% and 1.34% and 1.01%
- WBC Differential Counting Baso [1]: 1.0% (2×) and 0.8%
- WBC Differential Counting Eos [1]: 7.3% and 5.5% and 4.5%
- WBC Differential Counting Lymph [1]: 30.0% and 20.55% and 30.2%
- WBC Differential Counting Mono [1]: 5.7% and 6.2% and 6.1%
- WBC Differential Counting Neut [1]: 55.5% and 66.3% and 57.6%
- HCT [2]: 49.30%
- HGB [2]: 16.70 g/dL
- MCH [2]: 22.6 pg
- MCHC [2]: 33.83 g/dL
- MCV [2]: 66.9 fL
- Retic [2]: 1.04%
- WBC Differential Counting Baso [2]: 0.93%
- WBC Differential Counting Eos [2]: 5.77%
- WBC Differential Counting Lymph [2]: 27.00%
- WBC Differential Counting Mono [2]: 6.00%
- WBC Differential Counting Neut [2]: 59.80%
- HCT [3]: 48.1% and 48.8% and 45.2%
- HGB [3]: 16.0 g/dL and 15.2 g/dL
- MCH [3]: 22.2 pg and 21.7 pg and 21 pg
- MCHC [3]: 33.3 g/dL and 32.9 g/dL and 33.7 g/dL
- MCV [3]: 66.8 fL and 66.1 fL and 62.3 fL
- Retic [3]: 1.21% and 1.16% and 1.11%
- WBC Differential Counting Baso [3]: 1.0% and 0.9% and 0.8%
- WBC Differential Counting Eos [3]: 3.5% and 4.7% and 6.4%
- WBC Differential Counting Lymph [3]: 40.5% and 29.4% and 23.2%
- WBC Differential Counting Mono [3]: 4.7% and 8.3% and 6.0%
- WBC Differential Counting Neut [3]: 49.6% and 56.2% and 63.3%
- HCT [4]: 47.37%
- HGB [4]: 15.73 g/dL
- MCH [4]: 21.6 pg
- MCHC [4]: 33.30 g/dL
- MCV [4]: 65.1 fL
- WBC Differential Counting Baso [4]: 0.90%
- WBC Differential Counting Eos [4]: 4.87%
- WBC Differential Counting Lymph [4]: 31.03%
- WBC Differential Counting Mono [4]: 6.33%
- WBC Differential Counting Neut [4]: 56.37%
- HGB [5]: 15.77 g/dL
- MCH [5]: 22.9 pg
- MCHC [5]: 33.80 g/dL
- MCV [5]: 67.9 fL
- Retic [5]: 0.41%
- WBC Differential Counting(%) Baso [5]: 0.77%
- WBC Differential Counting(%) Eos [5]: 8.10%
- WBC Differential Counting(%) Lymph [5]: 28.50%
- WBC Differential Counting(%) Mono [5]: 5.30%
- WBC Differential Counting(%) Neut [5]: 56.90%
- HCT [6]: 45.3% and 47.7% and 46.9%
- HGB [6]: 15.3 g/dl and 16.0 g/dl (2×)
- MCHC [6]: 33.7 g/dL and 33.6 g/dL and 34.1 g/dL
- MCV [6]: 67.2 fL and 68.8 fL and 67.5 fL
- Retic [6]: 0.25% and 0.42% and 0.55%
- WBC Differential Counting(%) Baso [6]: 0.8% (2×) and 0.7%
- WBC Differential Counting(%) Eos [6]: 8.1% and 7.4% and 8.8%
- WBC Differential Counting(%) Lymph [6]: 25.1% and 33.4% and 27.0%
- WBC Differential Counting(%) Mono [6]: 5.3% and 5.0% and 5.6%
- WBC Differential Counting(%) Neut [6]: 60.2% and 53.1% and 57.4%
- HCT [7]: 46.43%
- HGB [7]: 15.53 g/dL
- MCH [7]: 22.2 pg
- MCHC [7]: 33.40 g/dL
- MCV [7]: 66.4 fL
- Retic [7]: 0.50%
- WBC Differential Counting(%) Baso [7]: 0.67%
- WBC Differential Counting(%) Eos [7]: 6.23%
- WBC Differential Counting(%) Lymph [7]: 31.10%
- WBC Differential Counting(%) Mono [7]: 6.47%
- WBC Differential Counting(%) Neut [7]: 55.10%
- HCT [8]: 43.8% and 47.0% and 48.5%
- HGB [8]: 14.4 g/dL and 15.8 g/dL and 16.4 g/dL
- MCH [8]: 22 pg and 22.8 pg and 21.8 pg
- MCHC [8]: 32.9 g/dL and 33.5 g/dL and 33.8 g/dL
- MCV [8]: 66.8 fL and 67.9 fL and 64.5 fL
- Retic [8]: 0.45% and 0.59% and 0.46%
- WBC Differential Counting(%) Baso [8]: 0.8% and 0.7% and 0.5%
- WBC Differential Counting(%) Eos [8]: 6.8% and 5.3% and 6.6%
- WBC Differential Counting(%) Lymph [8]: 35.9% and 32.7% and 24.7%
- WBC Differential Counting(%) Mono [8]: 6.1% and 7.5% and 5.8%
- WBC Differential Counting(%) Neut [8]: 50.0% and 53.4% and 61.9%
- HCT [9]: 44.4% and 50.3% and 47.5%
- HGB [9]: 14.6 g/dL and 16.9 g/dL and 15.9 g/dL
- MCH [9]: 22.5 pg and 22.2 pg and 22.1 pg
- MCHC [9]: 33.0 g/dL and 33.5 g/dL
- MCV [9]: 68.3 fL and 66.4 fL and 66.2 fL
- Retic [9]: 0.61% and 0.91% and 1.01%
- WBC Differential Counting Baso [9]: 0.6% and 1.5% and 0.4%
- WBC Differential Counting Eos [9]: 3.4% and 1.1% and 3.7%
- WBC Differential Counting Lymph [9]: 42.0% and 44.2% and 28.3%
- WBC Differential Counting Mono [9]: 4.9% and 3.7% and 5.9%
- HCT [10]: 47.40%
- HGB [10]: 15.80 g/dL
- MCH [10]: 22.3 pg
- MCHC [10]: 33.33 g/dL
- MCV [10]: 67 fL
- Retic [10]: 0.84%
- WBC Differential Counting Baso [10]: 0.83%
- WBC Differential Counting Eos [10]: 2.73%
- WBC Differential Counting Lymph [10]: 38.17%
- WBC Differential Counting Mono [10]: 4.83%
- HCT [11]: 44.8% and 43.0% and 52.1%
- HGB [11]: 15.0 g/dL and 13.8 g/dL and 17.4 g/dL
- MCH [11]: 23 pg and 22.3 pg and 22.9 pg
- MCHC [11]: 33.4 g/dL and 32.1 g/dL
- MCV [11]: 68 fL and 69.4 fL and 68.7 fL
- Retic [11]: 0.60% and 0.46% and 0.84%
- WBC Differential Counting Baso [11]: 0.4% and 0.8% and 1.1%
- WBC Differential Counting Eos [11]: 2.6% and 8.5% and 2.9%
- WBC Differential Counting Lymph [11]: 36.0% and 33.1% and 36.7%
- WBC Differential Counting Mono [11]: 5.9% and 7.8% and 5.8%
- WBC Differential Counting Neut [11]: 54.8% and 49.4% and 53.0%
- HCT [12]: 46.63%
- HGB [12]: 15.40 g/dL
- MCH [12]: 22.7 pg
- MCHC [12]: 32.97 g/dL
- MCV [12]: 69 fL
- Retic [12]: 0.63%
- WBC Differential Counting Baso [12]: 0.77%
- WBC Differential Counting Eos [12]: 4.67%
- WBC Differential Counting Lymph [12]: 35.27%
- WBC Differential Counting Mono [12]: 6.50%
- WBC Differential Counting Neut [12]: 52.40%
- HCT [13]: 48.00%
- HGB [13]: 16.00 g/dL
